The test system of data set [1] is dysfunctional human CD8 T cells. Briefly: In vitro model of human CD8 T cell dysfunction (chronic TCR plus TGFβ1 stimulation, day 28): effector functions, polyfunctionality, memory programs. It counts as cell-based. To be noted: for effector functions of human TEX cells: FIGS. 49A-49E.
For data set [2] the following is noted: cited from earlier work.
A further data set relates to H3K4me3. The note with it: myeloma cells; cited from earlier work.
For the next data set, the system named is myeloma cells. To be noted: cited from earlier work.
The target of the next data set is KDM5A and KDM5B. To be noted: cited from earlier work.
In data set [3] the test system is tumor-specific CD8 T cells. As to the kind of experiment: Tumor-infiltrating lymphocyte analysis in CT2A-gp33 glioma model. The note with it: combined with PD-L1 blockade. It counts as in vivo, mouse. As to the method:
CT2A-gp33 Glioma Model: The efficacy of GSK467 therapy was tested using CT2A-gp33 glioma model with gp33-specific P14 CD8 T cells adoptively transferred on day 17-20. […] (FIGS. 38A-38C)

Another data set has as its system CT2A-gp33 glioma. Briefly: CT2A-gp33 glioma model. It is filed as in vivo, mouse. To be noted: combined with PD-L1 blockade; CD8-KO or Rag1-KO animals, P14 CD8 T cells transferred.
Data set [4] deals with other Jumonji family members. The note with it: cited from earlier work.
Data set [5] deals with B16-F10-GP33 melanoma cells. As to the kind of experiment: In vitro tumor cell death of B16 melanoma cells. It counts as cell-based. To be noted: 24, 48 and 72 hours, different doses. An excerpt: Ordinary two-way ANOVA test, Dunnett's test. Error bars indicate SEM. N=4 replica of 2 independent experiments.
For another data set, the system named is P14 CD8 T cells. To be noted: mouse, in vivo.
In data set [6] the test system is PyMT-OVA breast adenocarcinoma. Briefly: Orthotopic breast cancer model (PyMT-OVA breast adenocarcinoma). It counts as in vivo, mouse. To be noted: combined with PD-L1 blockade, compared to PD-L1 blockade only. The source says:
FIGS. 16A-16C show therapeutic blockade of KDM5A and KDM5B boosts the responses of anti-tumor CD8 T cells to ICB therapy.
(§1) Targeting KDM5B in melanoma cells leads to enhanced tumor rejection by derepressing the expression of endogenous retroviral elements in tumor cells and reducing immune evasion of tumor cells. These findings provide a strong rationale for testing the in vivo efficacy of a selective KDM5A/B inhibitor as an adjunctive treatment to ICB therapy in ICB-refractory tumors. Discussed herein is whether the pharmacological inhibition of KDM5A/B recovers the responses of anti-tumor CD8 T cells to ICB treatment during solid tumors. Utilized herein are two tumor models known to be refractory to PD-1/PD-L1 blockade therapy, including orthotopic OVA-expressing PyMT breast adenocarcinoma and GP33-expressing B16-F10 melanoma in C57BL/6 animals. One week following the adoptive transfer of Thy1.1+TCR-transgenic CD8 T cells (OVA-specific OT-I or GP33-specific P14 cells) into tumor-bearing animals, mono- or combined therapy using KDM5A/Bi plus anti-PD-L 1 treatment was started (FIG. 25A-25B). Changes in tumor growth was tracked and measure the quantity, phenotype, proliferative potential, and functional capacity of adoptively transferred anti-tumor CD8 T cells measured within tumors and draining lymph nodes using spectral cytometry as described herein. […]

The subject of a further data set is B16-F10 melanoma. Briefly: B16-F10 melanoma model. It counts as in vivo, mouse. The note with it: 5 mg/Kg, every 2 days i.p.
Excerpt: as §1

Data set [7] has as its system Tprog, Tcyto and Tterm CD8 T cells. The note with it: mouse, in vivo.
The test system of another data set is KDM6. To be noted: cited from earlier work.
The test system of the next data set is AML cells. Briefly: Tumor-killing activity of treated dysfunctional human CD8 T cells (coculture with AML cells, 18 hr). It counts as cell-based. To be noted: with TGFβ1 blockade (TGFBR1 blocker); 25 μM GSK467; days 14-28.
In data set [8] the test system is virus-specific exhausted CD8 T cells. It counts as in vivo, mouse.
The next data set concerns TBX21 locus. As to the kind of experiment: DNA methylation at dysfunction-associated differentially methylated region, targeted Oxford Nanopore assay. It counts as cell-based, human. The note with it: GSK467 with or without TGFBR1 inhibitor (Repsox). As to the method:
To determine whether targeting H3K4 demethylation can reduce de novo DNA methylation programs at the effector function-related genes in human CD8 T cells, the changes in DNA methylation levels were assessed at the dysfunction-associated differentially methylated region in dysfunctional human CD8 T cells after GSK467 (KDM5A/B inhibitor) with or without TGFBR1 inhibitor (Repsox) treatment.

A further data set concerns TEX cells. To be noted: cited from earlier work.
A further data set relates to other immune cells. To be noted: cited from earlier work.
Setting [9] is: either GSK467 or C70, C70 25 μM, days 14-28.

SMILES strings stand for the structures. “Also recorded” adds a separate entry of the source.

Consider `CCOC(=O)c1ccnc(CNCC(=O)N(CC)CCN(C)C)c1` [C70], for which, in data set [1], the “effector functions of human TEX cells” value is reported as “enhances effector functions of human TEX cells”. In addition, the “polyfunctionality and memory expression programs” value in data set [1] (setting [9]) is “significantly enhanced polyfunctionality and memory expression programs”. Besides, the “cell penetration / permeability” value in data set [2] is on record as “cell-permeable”. Moreover, the H3K4me3 levels result with H3K4me3 is reported as “genome-wide elevation of H3K4me3 levels”. The antiproliferative effect entry in the data set on myeloma cells is reported as “antiproliferative effect”. The “KDM5A and KDM5B histone demethylase inhibition” value at KDM5A and KDM5B is recorded as “potent”.
With `O=c1nc(Oc2cnn(Cc3ccccc3)c2)[nH]c2cnccc12` [GSK467], the “effector functions of human TEX cells” value in [1] was “enhances effector functions of human TEX cells”. The “polyfunctionality and memory expression programs” value in data set [1] (setting [9]) was “significantly enhanced polyfunctionality and memory expression programs”. For the same compound, the “cytolytic activity and effector functions of dysfunctional human T cells” value in [1] (in vitro, direct effects on CD8 T cells) is “enhances the cytolytic activity and effector functions of dysfunctional human T cells”. In data set [1] (late treatment), the “effector and memory programs in dysfunctional human CD8 T cells” value is “can recover effector and memory programs”. Besides, in [1] (monotherapy, 25 μM GSK467, days 14-28), the “effector cytokine secretion and expression of memory-related transcription factors” value is “significantly restored effector cytokine secretion and expression of memory-related transcription factors”. For the same compound, the “polyfunctionality and memory expression programs” value in data set [1] (with TGFβ1 blockade (TGFBR1 blocker), 25 μM GSK467, days 14-28) is “further potentiated the reactivation of polyfunctionality and memory expression programs”. Moreover, in [3], the “frequencies of IFNG-secreting tumor-specific CD8 T cells” value is listed as “increased frequencies of IFNG-secreting tumor-specific CD8 T cells” and the “quantities of tumor-specific CD8 T cells” value was “significant increase in the quantities of tumor-specific CD8 T cells”. For the same compound, the tumor control result in the data set with CT2A-gp33 glioma is recorded as “significant tumor control”. Also, the “inhibitory effects toward other Jumonji family members” value in data set [4] was “no measurable inhibitory effects”. For the same compound, in data set [5], the “tumor cell death, frequencies of dead B16 melanoma cells” value is “increases B16 melanoma tumor death in vitro”. Also, in the data set on P14 CD8 T cells, the “proliferation response and long-lived memory function after ICB treatment” value is “synergized their proliferation response and promote long-lived memory function after ICB treatment”. Further, the breast tumor control result in data set [6] is recorded as “significant breast tumor control”. The “tumor control, combination” value in the data set on B16-F10 melanoma (combination with PD-L1 blockade, days 12-20) is given as “further potentiated with combination PD-L1 blockade therapy”. In addition, the tumor control entry in the data set with B16-F10 melanoma (monotherapy, days 12-20 post-tumor inoculation) is “significant tumor control”. For the same compound, in data set [7], the “development of Tterm cells” value is on record as “impeding the development of Tterm cells” and the “quantity of Tcyto cells” value was “increased the quantity of Tcyto cells”. Also, in data set [2], the “cell penetration / permeability” value is listed as “cell penetrant”. In addition, in the data set on KDM6, the “inhibitory effects toward KDM6” value is recorded as “no measurable inhibitory effects”. Moreover, in the data set with AML cells, the tumor-killing activity result is “augmented tumor-killing activity”. For the same compound, at KDM5A and KDM5B (role: inhibitor, stated for KDM5A and KDM5B together), the Ki was 10 nM. Further, the IC50 in the data set with KDM5A and KDM5B (stated for KDM5A and KDM5B together) was 26 nM. In data set [8] (mouse, in vivo), the “expansion of IFNG-secreting virus-specific CD8 T cells” value is “significant expansion of both Tprog and Tcyto cells, as well as IFNG-secreting virus-specific CD8 T cells”; the “expansion of Tprog and Tcyto cells” value was “significant expansion of both Tprog and Tcyto cells”; the “responses of virus-specific exhausted CD8 T cells to PD-L1 blockade” value is given as “enhanced the responses of virus-specific TEX cells to PD-L1 blockade; also recorded: enhanced the responses of virus-specific exhausted CD8 T cells to PD-L1 blockade”. In addition, in data set [8] (with anti-PD-L1 (FIGS. 7A-7E)), the “TEX cell responses to ICB during chronic LCMV infection” value is reported as “enhances TEX responses to ICB”. For the same compound, the “acquisition of de novo DNA methylation marks at the TBX21 locus” value in the data set on TBX21 locus was “significantly reduced the acquisition of de novo DNA methylation marks at the TBX21 locus”.
In the case of `Cc1cccc(-c2[nH]ncc2-c2ccc3ncccc3n2)n1` [TGFBR1 blocker], the “effector functions of chronically stimulated CD8 T cells” value in data set [1] (TGFβ1 blockade alone, days 14-28) was “recovered effector functions of chronically stimulated CD8 T cells”.
Regarding `Nc1ncn([C@H]2C[C@H](O)[C@@H](CO)O2)c(=O)n1` [decitabine], the “response of TEX cells, with ICB therapy” value with TEX cells is recorded as “synergizes with ICB therapy to rescue the response of TEX cells”. Moreover, in the data set on other immune cells, the “cytotoxicity and adverse effects” value is given as “highly cytotoxic drug that has adverse effects on other immune cells”; the selectivity entry is recorded as “non-selective”.
